Measurements: patent US7361633B2, “Screening method and anti-tumor drug candidate obtained therefrom” (Ardana Bioscience Limited, priority 2002, dated 2008)
“Also recorded” adds a separate entry of the source.

Experiments:
JEG-3 cells = assay: Annexin V-FITC staining of extracellular phosphatidylserine (apoptosis) in JEG-3 cells; assay type: cell-based, human; details: for extracellular annexin-V-reactive phosphatidylserine: 100 nM
Method: All twelve panels depict either phase contrast (1, 4, 7, 10), confocal laser microscope (2, 5, 8, 11) or phase contrast/confocal merged images (3, 6, 9, 12). Panels 1 to 3 depict untreated control JEG-3 cells for cells in panels 4 to 6 which have been treated with GnRH I (100 nM) for 24 h. All cells have been exposed while live to an annexin V recombinant protein conjugated to the FITC fluorophore. The annexin V will bind specifically only to phosphatidlyserine (PS) lipids usually only expressed on the intracellular side of the plasma membrane lipid bilayer. An early sign of apoptosis is the translocation of these PS lipids from the intracellular side of the membrane to the outer aspect of the bilayer. […] Panels 10 to 12 depict cells exposed to GnRH I for 48 h while panels 7 to 9 serve as unstimulated contemporaneous controls. […] The cellular levels of caspase 3 and procaspase 3 were assessed by specific immunoblotting of JEG-3 or BPH-1 whole cell (w-c) lysates from cells stimulated continuously with GnRH I for the times depicted.
A similar experimental approach was employed for the transfer of this study to BPH-1 cells, however as the MAPK under study in these cells was p38α much lower dose of SB203580 (1 μM) could be employed as the compound has a much greater inhibitory potency against p38 compared to JNK.
Thus we have shown that upon continuous GnRH ligand stimulation of either JEG-3 or BPH-1 there is a retardation of cell growth, however we were interested as to whether there was any genuine induction of cellular apoptosis recently reported to occur in several tumour cell lines (Soon et al (2002) J. Clin. Endocrinol. Metab. 87, 4580-4586). […] Initially we measured the effects of GnRH stimulation upon the ultrastructural integrity of the cells plasma membrane. A well documented early event in apoptosis is a reversal in the polarity of many plasma membrane molecules such as phosphatidylserine (PS). At an early stage of cellular apoptosis there is a significant translocation of PS from the inner to the outer envelope of the plasma membrane. […]

BPH-1 cells = assay: Annexin V-FITC staining of extracellular phosphatidylserine (apoptosis) in BPH-1 cells; assay type: cell-based, human; details: 48 h
Method: All twelve panels depict either phase contrast (1, 4, 7, 10), confocal laser microscope (2, 5, 8, 11) or phase contrast/confocal merged images (3, 6, 9, 12). Panels 1 to 3 depict untreated control JEG-3 cells for cells in panels 4 to 6 which have been treated with GnRH I (100 nM) for 24 h. All cells have been exposed while live to an annexin V recombinant protein conjugated to the FITC fluorophore. The annexin V will bind specifically only to phosphatidlyserine (PS) lipids usually only expressed on the intracellular side of the plasma membrane lipid bilayer. An early sign of apoptosis is the translocation of these PS lipids from the intracellular side of the membrane to the outer aspect of the bilayer. […] The cellular levels of caspase 3 and procaspase 3 were assessed by specific immunoblotting of JEG-3 or BPH-1 whole cell (w-c) lysates from cells stimulated continuously with GnRH I for the times depicted. […]
Thus we have shown that upon continuous GnRH ligand stimulation of either JEG-3 or BPH-1 there is a retardation of cell growth, however we were interested as to whether there was any genuine induction of cellular apoptosis recently reported to occur in several tumour cell lines (Soon et al (2002) J. Clin. Endocrinol. Metab. 87, 4580-4586). […] Initially we measured the effects of GnRH stimulation upon the ultrastructural integrity of the cells plasma membrane. […]

PLC-β = assay: Inositol phosphate accumulation in BPH-1 cells; assay type: cell-based, human; details: for inositol phosphate accumulation: 60 minutes, 10 mM LiCl, doses up to 50 μM
Method: BPH-1 cells were pre-incubated with ^3H-myoinositol (1 μCi/ml) for 48 h prior to ligand stimulation (60 minutes). Ligand stimulated inositol phosphate production was measured in the presence of 10 mM LiCl. […] IP accumulation can be used as a read out/marker for Gαq activation since the activation of PLCβ is PTX-resistant.

[1] = target: T1, marmoset Type II GnRH receptor (Callithrix jacchus, UniProt Q95MG6); assay: Inositol phosphate accumulation in αT4-II cells; assay type: cell-based; details: GnRH II 10 nM
T1 construct: expressed in transfected cells
T1 sequence (Q95MG6 1-380): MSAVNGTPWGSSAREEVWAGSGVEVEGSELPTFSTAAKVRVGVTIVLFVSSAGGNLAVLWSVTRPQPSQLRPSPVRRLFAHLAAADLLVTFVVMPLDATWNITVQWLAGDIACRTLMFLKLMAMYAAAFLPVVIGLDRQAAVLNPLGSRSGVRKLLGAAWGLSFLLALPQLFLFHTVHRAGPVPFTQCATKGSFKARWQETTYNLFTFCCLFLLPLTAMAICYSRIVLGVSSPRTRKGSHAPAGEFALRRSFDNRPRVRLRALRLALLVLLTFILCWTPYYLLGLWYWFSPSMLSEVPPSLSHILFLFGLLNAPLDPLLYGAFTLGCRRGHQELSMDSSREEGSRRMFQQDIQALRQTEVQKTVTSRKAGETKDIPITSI
Method: The histograms in panels a and b represent inositol phosphate accumulation data from HEK293 cells stably expressing the Type I GnRH receptor only (SCL60). […] In panels c and d, the liberated inositol phosphates generated were measured in the proto-gonadotrope cells (αT4) stably expressing the marmoset Type II GnRH receptor (designated αT4-II).
The ability of the four major agents under study at activating ectopically expressed Type I or Type II GnRHR were tested (FIG. 12). The classical signal transduction cascade activated by GnRHR stimulation is the Gαq-PLC-β cascade. Both Type I and II receptor can stimulate the Gαq-PLC type-G-protein and activate PLC-β which cleaves phosphatidylinositol bisphosphate (PIP2) into inositol trisphosphate (IP3), other lower inositol phosphates (IPn) and diacylglycerol (DAG). The major function of IP3 is to elevate intracellular Ca^2+ while DAG causes the activation of specific PKC (protein kinase C) isoforms.
Panels a and b of FIG. 12 depict the generation of free cytoplasmic ^3H-myo-inositols on the plasma membranes of HEK293 cells expressing the Type I GnRHR and of αT4 gonadotropes expressing the marmoset Type II GnRHR. Prior to agonist stimulation the respective cells were incubated in inositol-free growth media supplemented with 1 μCi/ml ^3H-myoinositol for 48 h. G protein coupled receptor (GPCR)-induced activation of PLC-β results in the cleavage of PIP2 (incorporating tritium ^3H) into free lower inositol phosphates (IPns).

C[S+]([O-])c1ccc(-c2nc(-c3ccncc3)c(-c3ccc(F)cc3)[nH]2)cc1 (centres unmarked) [SB203580]
effect on GnRH I-induced annexin V-FITC staining (pro-apoptotic state) (JEG-3 cells; 20 μM SB203580 with 100 nM GnRH I, 48 h): significant reduction in extent of cells entering a pro-apoptotic state; also recorded: significant reduction in the degree of annexin-V-FITC staining | effect on GnRH I-induced annexin V-FITC staining (pro-apoptotic state) (BPH-1 cells; 1 μM SB203580 with GnRH I): prevented GnRH from inducing a pro-apoptotic state in the BPH-1 cells; also recorded: almost completely abrogated

Ac-D-Nal(2)-D-4-ClPhe-D-Pal-Ser-1-MePal-D-IsopropylLys-Leu-IsopropylLys-Pro-D-AlaNH2 [Ant 135-25]
inositol phosphate accumulation (PLC-β): only high doses of GnRH I and Ant 135-25 cause any significant accumulation of inositol phosphates; also recorded: small capacity to induce inositol phosphate accumulation | agonistic activity: liberated inositol phosphates at marmoset Type II GnRH receptor [1]: do not cause any liberation of free inositol phosphates | agonistic activity: liberated inositol phosphates at marmoset Type II GnRH receptor ([1]; listed as 135-25): no IPn-generating capacity | agonistic activity: liberated inositol phosphates at marmoset Type II GnRH receptor ([1]; listed as Ant135-25): no partial activity at all; also recorded: fails to show any agonistic activity at the Type II marmoset GnRHR | agonistic activity: liberated inositol phosphates at marmoset Type II GnRH receptor ([1]; listed as antagonist 135-25): failed to generate significant free inositol phosphate

Ac-D-Nal(2)-D-4-ClPhe-D-Pal-Ser-Ile-D-IsopropylLys-Leu-IsopropylLys-Pro-D -AlaNH2 [Ant 135-18]
agonistic activity: liberated inositol phosphates at marmoset Type II GnRH receptor [1]: considerable partial agonistic activity; also recorded: dose-dependent agonistic activity | agonistic activity: liberated inositol phosphates at marmoset Type II GnRH receptor ([1]; listed as 135-18): only the Type II receptor was activated by 135-18

GnRH I: Gonadotropin-Releasing Hormone, a decapeptide; the original form of GnRH, re-named GnRH I
extracellular annexin-V-reactive phosphatidylserine (JEG-3 cells; 24 h): no significant expression of annexin-V-reactive PS on the extracellular surface of the plasma membrane | extracellular annexin-V-reactive phosphatidylserine (JEG-3 cells; 48 h): significant expression of extracellular annexin-V-reactive PS; also recorded: cells begin to become anti-annexin V-FITC immunoreactive; also recorded: considerable amount of external membrane annexin-V-reactive PS | extracellular annexin-V-reactive phosphatidylserine (BPH-1 cells): Identical results; also recorded: significant induction of annexin-V-FITC reactivity on the outer plasma membrane envelope | inositol phosphate accumulation (PLC-β): only high doses of GnRH I and Ant 135-25 cause any significant accumulation of inositol phosphates; also recorded: small capacity to induce inositol phosphate accumulation | effect of pertussis toxin pre-incubation on induced inositol phosphate accumulation (PLC-β; PTX 200 ng/ml 16 h, GnRH I 50 μM): abrogated by a 16 h pre-incubation of the BPH-1 cells with 200 ng/ml of pertussis toxin
